Reference: US10765754B2, “Compositions and methods related to inhibition of respiratory syncytial virus entry” (priority 2015, dated 2020)
Positions of bridges follow the written chain, without caps; N, C: chain ends. Non-standard residues stand in square brackets, D forms with d. Residues, ends and D or L forms follow the SMILES beside them.

Target: T1, RSV-B/IZN45 (Human respiratory syncytial virus B, UniProt O36634)
T1 construct: N-trimer Mimics Synthesized; made in house; host or cells: chemical peptide synthesis
Experiment: biochemical
Format: binding
Conditions: synthesized peptide; RSV-B/IZN45; KD determined by SPR
From the text: IZN45 N-trimer mimic comprises the IZ domain, a highly soluble, designed coiled-coil that helps solubilize the N-trimer, along with the C-terminal (bottom) 45 residues of the RSV N-trimer. IZN45 encompasses the full ordered portion of the N-trimer except for three N-terminal residues (removed to maintain a continuous heptad repeat with the IZ domain). The interactions between 35-residue RSV C-peptides, T108 and T118 (Lambert et al., 1996, Proc. Natl. Acad. Sci. USA 93:2186-2191), and IZN45 was examined by surface plasmon resonance (SPR). SPR is a gold standard assay to measure the kinetics and affinity of biological interactions. […] The Biotinylated L-form of RSV target IZN45 was captured onto one lane of a NeutrAvidin coated SPR chip. A mutant version of IZN45 containing four mutated residues along the N-trimer groove designed to disrupt binding (IZN45 Full Mut, negative control) was captured onto a separate lane of the NeutrAvidin chip. T118, corresponding to the C-terminal portion of the RSV F ectodomain, which is known to interact with the RSV N-trimer groove, was flowed over the various surfaces. […] The surfaces were regenerated with a detergent (0.1% SDS) after each injection of analyte. Various concentrations of T118 were measured in duplicate or triplicate injections. D-peptide interactions with IZN45 and IZN45-Full Mut surfaces were also measured using this method.
Peptides from the ‘winning’ phage clones from each library were synthesized as D-peptides. If solubility of the peptides was limited, N- or C-terminal charged residue(s) (e.g., lysine) were attached as necessary as previously described for HIV peptides in Eckert et al., 1999, Cell 99:103-15, incorporated by reference in its entirety. Binding affinity and kinetics of the D-peptide inhibitors to the IZN45 and IZN45 mutants was characterized by SPR (Biacore 3000), using methods as described in Welch et al., 2007, Proc. Natl. Acad. Sci. USA 104:16828-33, incorporated by reference in its entirety.

T1 sequence (O36634 163-207, added parts left off): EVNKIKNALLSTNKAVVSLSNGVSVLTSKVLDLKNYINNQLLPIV

Row | SMILES | Kd [µM]
1 | CC[C@@H](C)[C@@H](N)C(=O)N[C@H](CO)C(=O)N[C@H](CC(C)C)C(=O)N1CCC[C@@H]1C(=O)N[C@@H](C(=O)N1CCC[C@@H]1C(=O)N[C@@H](C(=O)N[C@H](Cc1c[nH]c2ccccc12)C(=O)N[C@H](Cc1c[nH]c2ccccc12)C(=O)N1CCC[C@@H]1C(=O)N[C@H](CO)C(=O)N[C@@H](C(=O)NCC(=O)N[C@H](CCCCN)C(N)=O)[C@H](C)O)[C@H](C)O)[C@H](C)O [X12-45-GK] (H-[dI][dS][dL][dP][dT][dP][dT][dW][dW][dP][dS][dT]G[dK]-NH2) | 6
2 | CC[C@@H](C)[C@@H](NC(=O)[C@H](NC(=O)[C@@H](CCCCN)NC(=O)[C@H](N)CO)C(C)C)C(=O)N[C@H](CC(C)C)C(=O)N1CCC[C@@H]1C(=O)N[C@H](CCC(=O)O)C(=O)N1CCC[C@@H]1C(=O)N[C@H](Cc1ccccc1)C(=O)N[C@H](Cc1c[nH]c2ccccc12)C(=O)N[C@H](Cc1c[nH]c2ccccc12)C(=O)N1CCC[C@@H]1C(=O)NCC(=O)NCC(N)=O [X12-47-GG] (H-[dS][dK][dV][dI][dL][dP][dE][dP][dF][dW][dW][dP]GG-NH2) | 17
3 | CC[C@@H](C)[C@H]1NC(=O)[C@@H](CCCCN)NC(=O)[C@H](NC(=O)[C@@H](C)NC(=O)CN)CSSC[C@H](C(=O)N[C@H](C)C(=O)N[C@H](C)C(N)=O)NC(=O)[C@@H](CC(=O)O)NC(=O)[C@@H](Cc2c[nH]cn2)NC(=O)[C@@H](Cc2c[nH]c3ccccc23)NC(=O)[C@@H](Cc2c[nH]cn2)NC(=O)[C@@H](Cc2ccccc2)NC(=O)[C@@H](CC(C)C)NC(=O)[C@@H](CC(=O)O)NC(=O)[C@@H](Cc2c[nH]cn2)NC1=O [CX10C-119] (H-G[dA][dC][dK][dI][dH][dD][dL][dF][dH][dW][dH][dD][dC][dA][dA]-NH2; disulfide 3-14) | 100
4 | CC[C@@H](C)[C@H]1NC(=O)[C@@H](CCCCN)NC(=O)[C@H](NC(=O)[C@@H](C)NC(=O)CNC(C)=O)CSSC[C@H](C(=O)N[C@H](C)C(=O)N[C@H](C)C(=O)NCC(=O)NCC(N)=O)NC(=O)[C@@H](CC(=O)O)NC(=O)[C@@H](Cc2c[nH]cn2)NC(=O)[C@@H](Cc2c[nH]c3ccccc23)NC(=O)[C@@H](Cc2c[nH]cn2)NC(=O)[C@@H](Cc2ccccc2)NC(=O)[C@@H](CC(C)C)NC(=O)[C@@H](CC(=O)O)NC(=O)[C@@H](Cc2c[nH]cn2)NC1=O [Ac-CX10C-119-GG] (Ac-G[dA][dC][dK][dI][dH][dD][dL][dF][dH][dW][dH][dD][dC][dA][dA]GG-NH2; disulfide 3-14) | 30
5 | CC[C@@H](C)[C@@H](NC(C)=O)C(=O)N[C@H](CO)C(=O)N[C@H](CC(C)C)C(=O)N1CCC[C@@H]1C(=O)N[C@@H](C(=O)N1CCC[C@@H]1C(=O)N[C@@H](C(=O)N[C@H](Cc1c[nH]c2ccccc12)C(=O)N[C@H](Cc1c[nH]c2ccccc12)C(=O)N1CCC[C@@H]1C(=O)N[C@H](CO)C(=O)N[C@@H](C(=O)NCC(=O)NCC(N)=O)[C@H](C)O)[C@H](C)O)[C@H](C)O [Ac-X12-45-GG] (Ac-[dI][dS][dL][dP][dT][dP][dT][dW][dW][dP][dS][dT]GG-NH2) | 25
6 | CSCC[C@@H](NC(=O)[C@@H](Cc1c[nH]c2ccccc12)NC(=O)[C@@H](Cc1c[nH]c2ccccc12)NC(=O)[C@@H](Cc1ccc(O)cc1)NC(=O)[C@@H](CCCCN)NC(=O)[C@@H](CC(C)C)NC(=O)[C@H](N)CO)C(=O)N[C@H](CCC(=O)O)C(=O)N[C@H](CCC(=O)O)C(=O)N[C@H](CC(C)C)C(=O)N1CCC[C@@H]1C(=O)N[C@H](CC(C)C)C(=O)N1CCC[C@@H]1C(=O)N[C@H](CCCCN)C(=O)N[C@H](Cc1c[nH]c2ccccc12)C(=O)N[C@H](Cc1c[nH]c2ccccc12)C(N)=O [X16-18] (H-[dS][dL][dK][dY][dW][dW][dM][dE][dE][dL][dP][dL][dP][dK][dW][dW]-NH2) | 16
